Reference: PubChem BioAssay AID248 (DTP/NCI, 2004)
Toxic doses and inconclusive results are not listed. Rule as the data show it: active = T/C of 150% or more; inactive = T/C below 125%.

Tested on: L1210 leukemia ip in BDF1 mice, survival T/C
Assay: NCI In Vivo Anticancer Drug Screen. Data for tumor model L1210 Leukemia (intraperitoneal) in B6D2F1 (BDF1) mice
Details: endpoint: mean survival time, higher = longer survival
How it was run: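 Transplantable tumor model; survival measured in treated vs vehicle control mice. Value = treated/control.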

[1] = dose: 100.0 mg/kg/injection, schedule: Q01DX001 (ip), vehicle: carboxymethylcellulose (CMC)
[2] = dose: 200.0 mg/kg/injection, schedule: Q01DX001 (ip), vehicle: carboxymethylcellulose (CMC)
[3] = dose: 400.0 mg/kg/injection, schedule: Q01DX001 (ip), vehicle: carboxymethylcellulose (CMC)
[4] = dose: 100.0 mg/kg/injection, schedule: Q04DX002 (ip), vehicle: saline with Tween-80
[5] = dose: 200.0 mg/kg/injection, schedule: Q04DX002 (ip), vehicle: saline with Tween-80
[6] = dose: 400.0 mg/kg/injection, schedule: Q04DX002 (ip), vehicle: saline with Tween-80
[7] = dose: 100.0 mg/kg/injection, schedule: Q01DX009 (ip), vehicle: saline
[8] = dose: 100.0 mg/kg/injection, schedule: Q04DX002 (ip), vehicle: Klucel (hydroxypropylcellulose) (HPC)
[9] = dose: 200.0 mg/kg/injection, schedule: Q01DX009 (ip), vehicle: saline
[10] = dose: 200.0 mg/kg/injection, schedule: Q04DX002 (ip), vehicle: Klucel (hydroxypropylcellulose) (HPC)
[11] = dose: 400.0 mg/kg/injection, schedule: Q04DX002 (ip), vehicle: Klucel (hydroxypropylcellulose) (HPC)

Measured: T/C

O=C(O)C(O)C(O)C(O)C(O)C(O)CO.[Fe] (stereo not given)
inactive: dose: 75.0 mg/kg/injection, schedule: Q01DX001 (ip), vehicle: saline 95 % of control

CC(C)Cn1cnc2c(Sc3c([N+](=O)[O-])ncn3C)nc(N)nc21
inactive: dose: 6.0 mg/kg/injection, schedule: Q01DX015 (ip), vehicle: carboxymethylcellulose (CMC) 104 % of control | dose: 12.0 mg/kg/injection, schedule: Q01DX015 (ip), vehicle: carboxymethylcellulose (CMC) 111 % of control | dose: 25.0 mg/kg/injection, schedule: Q01DX015 (ip), vehicle: carboxymethylcellulose (CMC) 117 % of control | dose: 50.0 mg/kg/injection, schedule: Q01DX001 (ip), vehicle: carboxymethylcellulose (CMC) 114 % of control | [1] 117 % of control | [2] 119 % of control
active: [3] 162 % of control | dose: 600.0 mg/kg/injection, schedule: Q01DX001 (ip), vehicle: carboxymethylcellulose (CMC) 170 % of control

COc1ccccc1NC(=O)NO
inactive: [1] 97 % of control | [2] 97 % of control | [3] 100 % of control

O=C(N/N=C\c1c[nH]c2ccccc12)N/N=C/c1c[nH]c2ccccc12
inactive: [4] 97 % of control | [5] 104 % of control | [6] 97 % of control

O=C(O)CCC(=O)c1ccccc1
inactive: dose: 50.0 mg/kg/injection, schedule: Q01DX009 (ip), vehicle: saline 97 % of control | dose: 100.0 mg/kg/injection, schedule: Q01DX009 (ip), vehicle: Klucel (hydroxypropylcellulose) (HPC) 100 % of control | [7] 97 % of control | [8] 97 % of control | [4] 108 % of control | dose: 200.0 mg/kg/injection, schedule: Q01DX009 (ip), vehicle: Klucel (hydroxypropylcellulose) (HPC) 96 % of control | [9] 105 % of control | [10] 91 % of control | [5] 105 % of control | dose: 400.0 mg/kg/injection, schedule: Q01DX009 (ip), vehicle: Klucel (hydroxypropylcellulose) (HPC) 107 % of control | [11] 87 % of control | [6] 105 % of control

CN(C)c1ccccc1C(=O)N/N=C\c1ccc(-c2ccccc2)cc1
inactive: [8] 87 % of control | [10] 100 % of control | [11] 117 % of control

COC(=O)c1cc(C)ccc1C
inactive: dose: 100.0 mg/kg/injection, schedule: Q01DX001 (ip), vehicle: saline 101 % of control | dose: 200.0 mg/kg/injection, schedule: Q01DX001 (ip), vehicle: saline 98 % of control | dose: 400.0 mg/kg/injection, schedule: Q01DX001 (ip), vehicle: saline 101 % of control

COC1C(OC(N)=O)C(O)C(Oc2ccc3c(O)c(NC(=O)c4ccc(O)c(CC=C(C)C)c4)c(=O)oc3c2C)OC1(C)C (stereo not given)
inactive: dose: 50.0 mg/kg/injection, schedule: Q01DX Z (ip), vehicle: saline 91 % of control | dose: 100.0 mg/kg/injection, schedule: Q01DX Z (ip), vehicle: saline 91 % of control | dose: 200.0 mg/kg/injection, schedule: Q01DX Z (ip), vehicle: saline 91 % of control

CCCN(CCC)CCC(=O)O
inactive: [7] 100 % of control | dose: 100.0 mg/kg/injection, schedule: Q04DX003 (ip), vehicle: saline 97 % of control | [9] 96 % of control | dose: 200.0 mg/kg/injection, schedule: Q04DX003 (ip), vehicle: saline 108 % of control | dose: 400.0 mg/kg/injection, schedule: Q01DX009 (ip), vehicle: saline 102 % of control | dose: 400.0 mg/kg/injection, schedule: Q04DX003 (ip), vehicle: saline 101 % of control

COc1cc(/C=N/OCc2cc3c(cc2Cl)OCO3)cc(OC)c1OC
inactive: dose: 100.0 mg/kg/injection, schedule: Q04DX003 (ip), vehicle: saline with Tween-80 99 % of control | dose: 200.0 mg/kg/injection, schedule: Q04DX003 (ip), vehicle: saline with Tween-80 94 % of control | dose: 400.0 mg/kg/injection, schedule: Q04DX003 (ip), vehicle: saline with Tween-80 96 % of control
